Source: PubChem BioAssay AID330 (DTP/NCI, 2004)
“And” between values parts separate entries of the source, which are not always exact repeats. Equal values may be shown once. Toxic doses and inconclusive results are not listed. How the source made its calls: active means survival T/C of 150% or more; inactive means T/C below 125% in these data.

System: P388 leukemia ip, CD2F1 mice, survival T/C
Test: NCI In Vivo Anticancer Drug Screen. Data for tumor model P388 Leukemia (intraperitoneal) in CD2F1 (CDF1) mice
Conditions: endpoint: median survival time, higher = longer survival
Summary of the method: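 Mice carrying the transplanted tumor received test compound or vehicle. Survival was recorded in each group, and the value is the treated-group measurement divided by that of the vehicle-treated control group.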

[1] = dose: 12.5 mg/kg/injection, schedule: Q01DX009 (ip), vehicle: saline
[2] = dose: 25.0 mg/kg/injection, schedule: Q01DX009 (ip), vehicle: saline
[3] = dose: 100.0 mg/kg/injection, schedule: Q04DX003 (ip), vehicle: saline with Tween-80
[4] = dose: 200.0 mg/kg/injection, schedule: Q04DX003 (ip), vehicle: saline with Tween-80
[5] = dose: 100.0 mg/kg/injection, schedule: Q04DX002 (ip), vehicle: Klucel (hydroxypropylcellulose) (HPC)
[6] = dose: 200.0 mg/kg/injection, schedule: Q04DX002 (ip), vehicle: Klucel (hydroxypropylcellulose) (HPC)
[7] = dose: 400.0 mg/kg/injection, schedule: Q04DX002 (ip), vehicle: Klucel (hydroxypropylcellulose) (HPC)
[8] = dose: 50.0 mg/kg/injection, schedule: Q01DX009 (ip), vehicle: Klucel (hydroxypropylcellulose) (HPC)
[9] = dose: 100.0 mg/kg/injection, schedule: Q01DX009 (ip), vehicle: Klucel (hydroxypropylcellulose) (HPC)
[10] = dose: 200.0 mg/kg/injection, schedule: Q01DX009 (ip), vehicle: Klucel (hydroxypropylcellulose) (HPC)
[11] = dose: 25.0 mg/kg/injection, schedule: Q01DX009 (ip), vehicle: saline with Tween-80
[12] = dose: 50.0 mg/kg/injection, schedule: Q01DX009 (ip), vehicle: saline with Tween-80
[13] = dose: 100.0 mg/kg/injection, schedule: Q01DX009 (ip), vehicle: saline with Tween-80
[14] = dose: 200.0 mg/kg/injection, schedule: Q01DX009 (ip), vehicle: saline with Tween-80
[15] = dose: 50.0 mg/kg/injection, schedule: Q01DX009 (ip), vehicle: saline

Measured: T/C

CC1CN1P(=O)(N1CC2CCC(CC2)C1)N1CC1C (stereo not drawn)
inactive: dose: 6.25 mg/kg/injection, schedule: Q01DX009 (ip), vehicle: saline 109 % of control | [1] 95 % of control | [2] 104 % of control | [3] 122 % of control | [4] 90 % of control

COC(=O)c1ccc(O)c([N+](=O)[O-])c1
inactive: dose: 50.0 mg/kg/injection, schedule: Q04DX003 (ip), vehicle: saline with Tween-80 100 % of control | [3] 109 % of control | [4] 100 % of control

O=c1c2ccccc2sc2c([N+](=O)[O-])ccc(NCCC3CCCN4CCCCC34)c12 (stereo not drawn)
inactive: dose: 44.5 mg/kg/injection, schedule: Q01DX005 (ip), vehicle: saline with Tween-80 95 % of control | dose: 89.0 mg/kg/injection, schedule: Q01DX005 (ip), vehicle: saline with Tween-80 94 % of control | dose: 178.0 mg/kg/injection, schedule: Q01DX005 (ip), vehicle: saline with Tween-80 96 % of control | dose: 356.0 mg/kg/injection, schedule: Q01DX005 (ip), vehicle: saline with Tween-80 100 % of control

O=C(CCN1C(=O)c2ccccc2C1=O)Nc1ncc[nH]1
inactive: dose: 8.75 mg/kg/injection, schedule: Q01DX005 (ip), vehicle: Klucel (hydroxypropylcellulose) (HPC) 98 % of control | dose: 17.5 mg/kg/injection, schedule: Q01DX005 (ip), vehicle: Klucel (hydroxypropylcellulose) (HPC) 98 % of control | dose: 35.0 mg/kg/injection, schedule: Q01DX005 (ip), vehicle: Klucel (hydroxypropylcellulose) (HPC) 96 % of control

CCCCCCN=C(N)N/N=C(\C)c1ccc2c(c1)Cc1cc(/C(C)=N/NC(N)=NCCCCCC)ccc1-2
inactive: dose: 6.25 mg/kg/injection, schedule: Q04DX002 (ip), vehicle: saline with Tween-80 98 % of control | dose: 12.5 mg/kg/injection, schedule: Q04DX002 (ip), vehicle: saline with Tween-80 107 % of control | dose: 25.0 mg/kg/injection, schedule: Q04DX002 (ip), vehicle: saline with Tween-80 109 % of control | dose: 50.0 mg/kg/injection, schedule: Q04DX002 (ip), vehicle: saline with Tween-80 116 % of control

CC1(C)CCCC(C)(C)N1CC#CCON1C(=O)c2ccccc2C1=O
inactive: [5] 102 % of control | [6] 96 % of control | [7] 105 % of control

COc1ccc(C2C(C#N)=C(N)Oc3c2c(C)nn3-c2ccccc2)cc1 (stereo not drawn)
inactive: [8] 89 % of control and 92 % of control | [9] 99 % of control and 96 % of control | [10] 90 % of control and 97 % of control

N#CC1c2ccccc2C=CN1C(=O)CCCl (stereo not drawn)
inactive: [8] 106 % of control | [9] 108 % of control | [10] 108 % of control

CCN(CC)C(=O)C1(C)NS(=O)(=O)c2ccccc2C1=O (stereo not drawn)
inactive: [11] 106 % of control | [12] 98 % of control and 110 % of control and 96 % of control | [13] 98 % of control and 110 % of control and 97 % of control | [14] 95 % of control

CC(=O)Nc1ccc(NC(=S)NC(=O)c2ccccc2)cc1
inactive: [12] 107 % of control | [13] 100 % of control | [14] 95 % of control

COc1ccc(C[N+]2=Cc3cc(OC)c(OC)cc3CC2)cc1
inactive: dose: 12.5 mg/kg/injection, schedule: Q01DX001 (ip), vehicle: saline + alcohol 100 % of control | dose: 25.0 mg/kg/injection, schedule: Q01DX001 (ip), vehicle: saline + alcohol 98 % of control | dose: 50.0 mg/kg/injection, schedule: Q01DX001 (ip), vehicle: saline + alcohol 98 % of control

NC(=S)n1nc(-c2cccs2)c(N=Nc2ccc(Cl)cc2)c1C(F)(F)F
inactive: dose: 60.0 mg/kg/injection, schedule: Q01DX005 (ip), vehicle: Klucel (hydroxypropylcellulose) (HPC) 87 % of control | dose: 120.0 mg/kg/injection, schedule: Q01DX005 (ip), vehicle: Klucel (hydroxypropylcellulose) (HPC) 93 % of control

Cc1cc(C)c2nc(C)c(C)[n+]([O-])c2c1
inactive: dose: 50.0 mg/kg/injection, schedule: Q01DX005 (ip), vehicle: saline with Tween-80 101 % of control | dose: 100.0 mg/kg/injection, schedule: Q01DX005 (ip), vehicle: saline with Tween-80 100 % of control | dose: 200.0 mg/kg/injection, schedule: Q01DX005 (ip), vehicle: saline with Tween-80 100 % of control

ClCc1nnc2cccc(Cl)n12
inactive: dose: 100.0 mg/kg/injection, schedule: Q01DX001 (ip), vehicle: Klucel (hydroxypropylcellulose) (HPC) 102 % of control | dose: 200.0 mg/kg/injection, schedule: Q01DX001 (ip), vehicle: Klucel (hydroxypropylcellulose) (HPC) 96 % of control | dose: 400.0 mg/kg/injection, schedule: Q01DX001 (ip), vehicle: Klucel (hydroxypropylcellulose) (HPC) 99 % of control

CC1=CC(=O)C2OC2C1=O (stereo not drawn)
inactive: dose: 5.0 mg/kg/injection, schedule: Q04DX002 (ip), vehicle: saline with Tween-80 101 % of control

COc1cc2c(cc1OC)C1C(C)c3ccc(OC)c(OC)c3CN1CC2 (stereo not drawn)
inactive: [1] 88 % of control | [2] 104 % of control | [15] 107 % of control | dose: 50.0 mg/kg/injection, schedule: Q04DX003 (ip), vehicle: distilled water + Tween-80 93 % of control | dose: 100.0 mg/kg/injection, schedule: Q04DX003 (ip), vehicle: distilled water + Tween-80 87 % of control | dose: 200.0 mg/kg/injection, schedule: Q04DX003 (ip), vehicle: distilled water + Tween-80 87 % of control | dose: 400.0 mg/kg/injection, schedule: Q01DX009 (ip), vehicle: saline 94 % of control | dose: 400.0 mg/kg/injection, schedule: Q04DX003 (ip), vehicle: distilled water + Tween-80 91 % of control

O=C1CC2(CCCCC2)C(=O)N1c1ccc(-c2ccc(N3C(=O)CC4(CCCCC4)C3=O)cc2)cc1
inactive: [5] 89 % of control | [6] 88 % of control | [7] 91 % of control

O=C(O)CC12CC3CC(CC(=O)O)(C1)CC(CC(=O)O)(C3)C2
inactive: [8] 109 % of control | [9] 108 % of control | [10] 111 % of control

Cc1cccc(=O)n1C
inactive: [15] 102 % of control | dose: 100.0 mg/kg/injection, schedule: Q01DX009 (ip), vehicle: saline 102 % of control | dose: 200.0 mg/kg/injection, schedule: Q01DX009 (ip), vehicle: saline 100 % of control

Cn1c(N)c(C(=O)Cc2ccccc2)c(=O)n(C)c1=O
inactive: dose: 100.0 mg/kg/injection, schedule: Q04DX003 (ip), vehicle: Klucel (hydroxypropylcellulose) (HPC) 109 % of control | dose: 200.0 mg/kg/injection, schedule: Q04DX003 (ip), vehicle: Klucel (hydroxypropylcellulose) (HPC) 100 % of control | dose: 400.0 mg/kg/injection, schedule: Q04DX003 (ip), vehicle: Klucel (hydroxypropylcellulose) (HPC) 109 % of control

CCCOc1ccc(C(C)c2cc3c(cc2OCC)OCO3)cc1 (stereo not drawn)
inactive: dose: 50.0 mg/kg/injection, schedule: Q01DX005 (ip), vehicle: Klucel + Tween-80 104 % of control | dose: 100.0 mg/kg/injection, schedule: Q01DX005 (ip), vehicle: Klucel + Tween-80 98 % of control | dose: 200.0 mg/kg/injection, schedule: Q01DX005 (ip), vehicle: Klucel + Tween-80 97 % of control

CC(C)(C)C1CCC(=O)C2(CCCC2)C1 (stereo not drawn)
inactive: [12] 100 % of control | [13] 114 % of control | [14] 122 % of control

c1ccc2c(Nc3ccc(C4=NCCN4)cc3)nnc(Nc3ccc(C4=NCCN4)cc3)c2c1
active: [11] 195 % of control | [12] 210 % of control | [13] 250 % of control | [3] 154 % of control and 168 % of control
inactive: dose: 3.13 mg/kg/injection, schedule: Q04DX003 (ip), vehicle: saline with Tween-80 100 % of control | dose: 6.25 mg/kg/injection, schedule: Q04DX003 (ip), vehicle: saline with Tween-80 110 % of control | dose: 12.5 mg/kg/injection, schedule: Q04DX003 (ip), vehicle: saline with Tween-80 110 % of control

COc1c2c(c(OC)c3c(OC)c4ccccc4c(OC)c13)CC(=O)CC2
inactive: dose: 1.56 mg/kg/injection, schedule: Q01DX009 (ip), vehicle: other 105 % of control | dose: 3.13 mg/kg/injection, schedule: Q01DX009 (ip), vehicle: other 101 % of control | dose: 6.25 mg/kg/injection, schedule: Q01DX009 (ip), vehicle: other 105 % of control | dose: 12.5 mg/kg/injection, schedule: Q01DX009 (ip), vehicle: other 101 % of control | dose: 25.0 mg/kg/injection, schedule: Q01DX009 (ip), vehicle: other 91 % of control

CC1(C)C/C(=C\c2cc(O)ccc2[N+](=O)[O-])C(=O)c2ccccc21
inactive: [13] 86 % of control | [14] 95 % of control | dose: 400.0 mg/kg/injection, schedule: Q01DX009 (ip), vehicle: saline with Tween-80 90 % of control
